Results taken from patent publication US20240325330A1, “NEW METHOD TO TREAT ACIDOSIS RELATED DISEASES WITH ACETOACETATE” (INSTITUT NATIONAL DE LA SANTÉ ET DE LA RECHERCHE MÉDICALE, priority 2021, published 2024).

How the values were obtained:
[1] = test system: day 3 LA-Mφ (human macrophages under lactic acidosis); assay: Survival of LA-Mφ with autophagy inhibitors; format: cell-based; details: added to day 3 LA-Mφ; data not shown
Description: (§1) Peripheral blood mononuclear cells (PBMC) were obtained from healthy human volunteers (Blood collection center, Angers, France; agreement ANG-2017-01) by standard density-gradient centrifugation on lymphocyte separation medium (Eurobio, Courtaboeuf, France). CD14+ monocytes were then isolated by positive magnetic cell-sorting (Miltenyi Biotec, Bergisch Gladbach, Germany). Monocytes (1×10^6 cells/mL) were cultured in complete medium (CM) consisting of RPMI 1640 (Lonza, Verviers, Belgium) supplemented with 10% fetal calf serum (FCS) (Eurobio), 2 mM L-glutamine, 1 mM sodium pyruvate, 0.1 mM non-essential amino acids, 10 mM HEPES, 100 U/mL penicillin and 100 μg/mL streptomycin (all from Lonza) in the presence of 50 ng/mL GM-CSF (R&D Systems, Minneapolis, MN).
(§2) Experiments were performed in the presence of 10 mM lactic acid (Sigma-Aldrich, St Louis, MO) resulting in a pHe of 6.5 to generate LA-Mφ (lactic acidosis conditioning), 12.35 mM HCl to reach a final pHe of 6.5 and to generate HCl-Mφ(acidosis conditioning), 10 mM sodium lactate (Sigma-Aldrich) to generate lactate-Mφ (lactosis conditioning, pH 7.3), in the absence or presence of 5 mM lithium acetoacetate (AcAc) (Sigma-Aldrich, St Louis, MO).

[2] = test system: Mφ (human monocytes cultured with GM-CSF); assay: Toxicity of lactic acid for macrophages; format: cell-based; details: pH=6.5; data not shown
Description: as §1, §2

Row | Compound | survival of LA-Mφ [1] | maximum non-toxic concentration for Mφ [2]
1 | CO/C1=C\C(C)=C\[C@@H](C)[C@@H](O)[C@@H](C)C/C(C)=C/C=C/[C@H](OC)[C@@H]([C@@H](C)[C@@H](O)[C@H](C)[C@@]2(O)C[C@@H](O)[C@H](C)[C@@H](C(C)C)O2)OC1=O [BafA1, bafilomycin A1] | significantly decreased their survival | –
2 | CC(O)C(=O)O (stereo not drawn) [LA, lactic acid] | – | 10 mM
3 | CC[C@@H](C(=O)[C@@H](C)[C@@H](O)[C@H](C)[C@@H]1O[C@@H]([C@@H](CC)C(=O)O)CC[C@@H]1C)[C@H]1O[C@]2(C=C[C@@H](O)[C@]3(CC[C@@](C)([C@H]4CC[C@](O)(CC)[C@H](C)O4)O3)O2)[C@H](C)C[C@@H]1C [salinomycin] | significantly decreased their survival | –
